Data reported in patent US9617272B2, “Tricyclic compounds as inhibitors of immunosuppression mediated by tryptophan metabolization” (NewLink Genetics Corporation, priority 2013, dated 2017).

Tests used:
[1] = molecular target: purified human IDO protein (Homo sapiens (Human), UniProt P14902); assay: Enzymatic IDO assay; assay type: biochemical
Experimental: Expression vectors for human indoleamine-2,3-dioxygenase (IDO) protein were prepared by amplification of a 1219 bp fragment of the sequence present in vector phIDO6His cDNA with primers 5′-ggagcatgcta[…]-3′ (SEQ ID NO: 1) and 5′gagagatct[…]-3′ (SEQ ID NO: 2) and cloning the SphI-BglII 1213 bp fragment into pQE70 (Qiagen), to yield vector pQE70-hIDO. This construct adds 2 extra amino acids and a 6-Histidine tag to the C-terminus of the natural human IDO protein while preserving intact the natural start codon and N-terminus amino acid sequence.
Plasmid pQE70-hIDO was transformed into M15(pREP4) cells (Qiagen) and clones were selected in LB-agar plates supplemented with carbenicillin 50 μg/mL and kanamycin 30 μg/mL. Protein expression was carried out by growing an overnight culture of the M15pREP4/pQE70-hIDO clone in 100 mL LB supplemented with 100 μg/mL carbenicillin, 50 μg/mL kanamycin and 50 μg/mL of L-tryptophan (LBCKT medium). 40 mL of this culture were inoculated into 750 mL of LBCKT for 4 hours at 37° C. This culture was diluted 1:10 into LBCKT medium and cultured for another 2 hours at 37° C. until OD600 was higher than 0.8. At this point the cultures were inoculated with Hemin to 7 μM and L-Tryptophan to 75 μg/mL and incubated at 37° C. for 2 h. Induction of protein expression was carried out by supplementing the cultures with IPTG to 1 mM, PMSF to 200 μM, EDTA to 1 mM and L-tryptophan to 50 μg/mL. Incubation was continued for additional 16 h at 25° C. Cells were collected by centrifugation, and the cell pellets were washed with PBS buffer supplemented with 200 μM PMSF and 1 mM EDTA and stored at −80° C. until protein purification.
The equivalent of 16 L of culture were processed in one batch of purification. Cell pellets were thawed, resuspended in 50 mM potassium phosphate buffer pH 7.0, 200 μM PMSF, 1 mM EDTA, 1 mg/mL lysozyme to 10 mL per liter of bacterial culture and incubated 30 minutes on ice. Cells were then lysed by sonication. Cell lysates were centrifuged 20 min at 20000 g and the supernatant was filtered through 0.45 μm filters. The filtered supernatant was loaded onto a 60 mL phosphocellulose column equilibrated with 50 mM potassium phosphate buffer pH 6.5 (KPB) at 1-3 mL/min. The column was washed with 3 volumes of 50 mM KPB, 3 volumes of 100 mM KPB and the protein was eluted with 15 volumes of a linear gradient of 100-500 mM KPB. Fractions were collected and IDO activity assay was performed by measuring kynurenine production. This was carried out by mixing 50 μL of each fraction with 100 μL of reaction mix to yield a final concentration of 50 mM KPB buffer, 20 mM ascorbic acid, 200 μg/mL catalase, 20 μM methylene blue and 400 μM L-tryptophan. […] Collected fractions were assayed by IDO enzymatic assay described above and the positive fractions were pooled and concentrated by ultrafiltration and dialyzed against a buffer containing 250 mM KPB, 50% glycerol.
(§1) The inhibitors were initially diluted in DMSO at 100 mM and were diluted in potassium phosphate 50 mM, added to the reaction mixture at final concentrations raging from 1 mM to 5 nM and preincubated with the enzyme for 5 min at 25° C. The reaction was started by addition of L-tryptophan to 200 μM and incubated 15 min at 37° C. The reaction was stopped by addition of 0.5 vol of 30% trichloroacetic acid and incubated 30 min at 60° C. to hydrolyze N-formylkynurenine to kynurenine. The reaction was centrifuged at 3400 g for 5 min to remove precipitated protein and the supernatant was reacted with 2% (w/v) of p-dimethylaminobenzaldehyde in acetic acid. The reaction was incubated 10 min at 25° C. and read at 480 nm in a spectrophotometer.

[2] = molecular target: purified human TDO protein (Homo sapiens (Human), UniProt P48775); assay: Enzymatic TDO assay; assay type: biochemical
Experimental: as §1, with “Differently from the IDO activity assay, no methylene blue is added to the assay. The inhibitors” for “The inhibitors”, “raging from 300 μM to 5” for “raging from 1 mM to 5”, “a spectrophotometer. Control samples with no TDO inhibitor, or with no TDO enzyme were used as controls to set the parameters for the non-linear regressions necessary for determination of the IC50 for each compound. Nonlinear regressions and determination of the IC50 values were performed using the GraphPad Prism 4 software.” for “a spectrophotometer.”

Chain of purified human TDO protein (P48775 whole entry): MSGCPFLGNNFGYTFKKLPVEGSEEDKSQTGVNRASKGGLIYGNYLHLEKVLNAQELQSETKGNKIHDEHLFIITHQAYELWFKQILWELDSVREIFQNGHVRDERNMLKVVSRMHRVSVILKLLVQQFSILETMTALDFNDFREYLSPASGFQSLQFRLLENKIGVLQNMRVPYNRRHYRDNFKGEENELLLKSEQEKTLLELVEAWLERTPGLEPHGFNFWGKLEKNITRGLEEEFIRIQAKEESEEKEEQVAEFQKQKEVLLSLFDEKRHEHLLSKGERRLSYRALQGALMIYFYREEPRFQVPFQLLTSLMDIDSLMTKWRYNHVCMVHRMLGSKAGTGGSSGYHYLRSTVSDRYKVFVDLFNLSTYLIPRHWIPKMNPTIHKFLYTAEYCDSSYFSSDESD
Chain of purified human IDO protein (P14902 whole entry P110S/E119G, the tested form may be a part): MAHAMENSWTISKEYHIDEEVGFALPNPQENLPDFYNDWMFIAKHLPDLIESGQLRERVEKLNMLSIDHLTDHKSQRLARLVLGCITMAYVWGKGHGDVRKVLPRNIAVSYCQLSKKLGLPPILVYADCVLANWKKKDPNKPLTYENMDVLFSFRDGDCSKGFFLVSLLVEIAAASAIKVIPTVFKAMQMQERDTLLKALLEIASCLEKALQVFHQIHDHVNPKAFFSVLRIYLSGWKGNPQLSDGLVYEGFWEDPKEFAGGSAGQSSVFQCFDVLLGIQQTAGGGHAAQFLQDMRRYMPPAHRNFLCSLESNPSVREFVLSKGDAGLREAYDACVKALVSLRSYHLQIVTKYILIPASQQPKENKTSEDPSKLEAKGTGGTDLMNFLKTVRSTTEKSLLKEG

| Structure (SMILES) | IC50 [1] [µM] | IC50 [2] [µM] |
| --- | --- | --- |
| O=C(CC1c2ccccc2-n2cncc21)C1CCCCC1 (centres unmarked) [Compound 27, 1-cyclohexyl-2-(9H-imidazo[1,5-a]indol-9-yl)ethan-1-one] | 1 to 10 | < 1 |
| OC(CC1c2ccccc2-c2nncn21)C1CCCCC1 (centres unmarked) [Compound 69, 2-(5H-[1,2,4]triazolo[3,4-a]isoindol-5-yl)-1-cyclohexylethan-1-ol] | > 100 | > 100 |
| OC(CC1c2ccccc2-n2cncc21)C1CCCCC1 (centres unmarked) [Compound 70, 1-cyclohexyl-2-(9H-imidazo[1,5-a]indol-9-yl)ethan-1-ol] | – | < 1 |
| c1ccc2c(c1)Cc1cn[nH]c1-2 [Compound 101] | > 100 | 1 to 10 |

Other lines, results leading:

| IC50 [1] [µM] | IC50 [2] [µM] | Structure (SMILES) |
| --- | --- | --- |
| > 100 | > 100 | O=C(CC1c2ccccc2-c2nncn21)C1CCCCC1 (centres unmarked) [Compound 43, 2-(5H-[1,2,4]triazolo[3,4-a]isoindol-5-yl)-1-cyclohexylethan-1-one] |
| 10 to 100 | 10 to 100 | O=C(CC1c2ccccc2-c2cnnn21)C1CCCCC1 (centres unmarked) [Compound 53, 2-(8H-[1,2,3]triazolo[5,1-a]isoindol-8-yl)-1-cyclohexylethan-1-one] |
| > 100 | > 100 | O=C(CC1c2ccccc2-c2cnnn21)C1CCC(F)(F)CC1 (centres unmarked) [Compound 54, 2-(8H-[1,2,3]triazolo[5,1-a]isoindol-8-yl)-1-(4,4-difluorocyclohexyl)ethan-1-one] |
| 10 to 100 | 10 to 100 | OC(CC1c2ccccc2-c2cnnn21)C1CCCCC1 (centres unmarked) [Compound 66, 2-(8H-[1,2,3]triazolo[5,1-a]isoindol-8-yl)-1-cyclohexylethan-1-ol] |
| 10 to 100 | 1 to 10 | OC(CC1c2ccccc2-c2cnnn21)C1CCC(F)(F)CC1 (centres unmarked) [Compound 68, 2-(8H-[1,2,3]triazolo[5,1-a]isoindol-8-yl)-1-(4,4-difluorocyclohexyl)ethan-1-ol] |
